Data published in ChEMBL document CHEMBL1149448, “Synthesis and structure-activity relationships of a new series of 2alpha-substituted trans-4,5-dimethyl-4-(3-hydroxyphenyl)piperidine as mu-selective opioid antagonists” (Bioorg Med Chem Lett, 2006).

How the values were obtained:
[1] = target: Delta-type opioid receptor (Homo sapiens, UniProt P41143); assay: Displacement of [3H]diprenorphine from human cloned delta opioid receptor
[2] = target: Kappa-type opioid receptor (Homo sapiens, UniProt P41145); assay: Displacement of [3H]diprenorphine from human cloned kappa opioid receptor
[3] = target: T1, Mu-type opioid receptor (Homo sapiens, UniProt P35372); assay: Displacement of [3H]diprenorphine from human cloned mu opioid receptor
[4] = target: T1, Mu-type opioid receptor; assay: Inhibition of loperamide-stimulated [35S]GTP-gamma-S binding to membranes containing mu opioid receptor; type: functional

Chain of Kappa-type opioid receptor (P41145 whole entry): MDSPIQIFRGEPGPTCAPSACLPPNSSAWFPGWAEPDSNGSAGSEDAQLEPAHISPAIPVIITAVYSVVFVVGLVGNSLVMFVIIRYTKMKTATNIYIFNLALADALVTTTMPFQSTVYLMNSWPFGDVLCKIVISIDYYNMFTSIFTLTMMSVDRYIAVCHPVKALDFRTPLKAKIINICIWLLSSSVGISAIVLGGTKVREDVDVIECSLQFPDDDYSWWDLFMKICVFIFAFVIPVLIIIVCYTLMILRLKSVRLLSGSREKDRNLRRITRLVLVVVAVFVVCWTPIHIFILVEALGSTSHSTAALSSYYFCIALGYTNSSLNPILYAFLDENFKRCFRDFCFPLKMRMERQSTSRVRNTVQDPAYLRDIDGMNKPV
T1 sequence (P35372 whole entry): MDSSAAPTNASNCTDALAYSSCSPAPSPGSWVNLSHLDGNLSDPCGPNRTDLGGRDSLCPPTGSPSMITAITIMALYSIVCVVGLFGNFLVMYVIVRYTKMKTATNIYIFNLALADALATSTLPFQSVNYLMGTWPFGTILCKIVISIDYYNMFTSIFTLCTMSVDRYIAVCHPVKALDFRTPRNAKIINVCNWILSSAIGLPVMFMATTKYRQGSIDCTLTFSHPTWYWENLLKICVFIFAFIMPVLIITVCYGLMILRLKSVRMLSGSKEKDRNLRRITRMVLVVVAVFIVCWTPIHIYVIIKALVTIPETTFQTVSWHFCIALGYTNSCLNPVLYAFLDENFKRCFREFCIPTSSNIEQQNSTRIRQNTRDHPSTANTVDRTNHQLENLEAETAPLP
Chain of Delta-type opioid receptor (P41143 whole entry): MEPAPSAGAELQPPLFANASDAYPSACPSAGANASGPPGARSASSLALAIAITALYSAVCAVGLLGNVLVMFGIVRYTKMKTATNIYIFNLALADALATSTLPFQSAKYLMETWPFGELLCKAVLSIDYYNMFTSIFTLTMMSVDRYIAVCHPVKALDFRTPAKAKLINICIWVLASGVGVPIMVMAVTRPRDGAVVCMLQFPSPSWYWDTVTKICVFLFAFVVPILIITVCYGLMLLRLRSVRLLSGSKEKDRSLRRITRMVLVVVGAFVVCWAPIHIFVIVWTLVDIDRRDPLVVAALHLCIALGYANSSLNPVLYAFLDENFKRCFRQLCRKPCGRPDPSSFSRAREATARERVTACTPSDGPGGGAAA

In the case of `C[C@H]1CN(CCc2ccccc2)[C@H](CCN2CCCC2)C[C@@]1(C)c1cccc(O)c1`, the Ki [1] is reported as over 1000 nM, the Ki [2] is reported as over 1000 nM and the Ki [3] is reported as over 1000 nM. For the same molecule, the IC50 [4] was over 1000 nM.

For `CCC[C@@H]1C[C@@](C)(c2cccc(O)c2)[C@@H](C)CN1`, the Ki [1] was over 1000 nM, the Ki [2] was 690 nM and the Ki [3] was 560 nM. It also gave an IC50 [4] of over 1000 nM.

`CCC[C@@H]1C[C@@](C)(c2cccc(O)c2)[C@@H](C)CN1Cc1ccccc1` was tested, and the Ki [1] was 880 nM, the Ki [2] was 360 nM and the Ki [3] was 700 nM. For the same molecule, the IC50 [4] was 170 nM.

`C[C@H]1CN(CCc2ccccc2)[C@H](CCc2ccccc2)C[C@@]1(C)c1cccc(O)c1` was tested, and the Ki [1] was 610 nM, the Ki [2] was 790 nM and the Ki [3] was 160 nM. The IC50 [4] was 210 nM.

For `C[C@H]1CN(CCc2ccccc2)[C@H](c2ccccc2)C[C@@]1(C)c1cccc(O)c1`, the Ki [1] was 260 nM, the Ki [2] was 290 nM and the Ki [3] was 280 nM. For the same molecule, the IC50 [4] was over 1000 nM.

For `C[C@H]1CN(CCc2ccccc2)[C@H](CCN)C[C@@]1(C)c1cccc(O)c1`, the Ki [1] was over 1000 nM, the Ki [2] was 510 nM and the Ki [3] was 780 nM. It also gave an IC50 [4] of 390 nM.

With `CCC[C@@H]1C[C@@](C)(c2cccc(O)c2)[C@@H](C)CN1CCCc1ccccc1` the Ki [1] was 180 nM, the Ki [2] was 74 nM and the Ki [3] was 19 nM. The IC50 [4] was 16 nM.

`C[C@H]1CN(CCc2ccccc2)[C@H](CCNC(=O)c2ccccc2)C[C@@]1(C)c1cccc(O)c1` was tested, and the Ki [1] was 710 nM, the Ki [2] was 200 nM and the Ki [3] was 59 nM. The IC50 [4] was 130 nM.

In the case of `CCC[C@@H]1C[C@@](C)(c2cccc(O)c2)[C@@H](C)CN1CCC`, the Ki [1] is reported as over 1000 nM, the Ki [2] is reported as 360 nM and the Ki [3] is reported as 430 nM. For the same molecule, the IC50 [4] was 320 nM.

`CCCCN1C[C@H](C)[C@](C)(c2cccc(O)c2)C[C@H]1CCC` showed a Ki [1] of over 1000 nM, a Ki [2] of 610 nM and a Ki [3] of 550 nM. For the same molecule, the IC50 [4] was 290 nM.

In the case of `CCCCCN1C[C@H](C)[C@](C)(c2cccc(O)c2)C[C@H]1CCC`, the Ki [1] is reported as over 1000 nM, the Ki [2] is reported as 570 nM and the Ki [3] is reported as 380 nM. For the same molecule, the IC50 [4] was 210 nM.

Molecule `CCCCCCN1C[C@H](C)[C@](C)(c2cccc(O)c2)C[C@H]1CCC` has a Ki [1] of 340 nM, a Ki [2] of 150 nM and a Ki [3] of 47 nM. The IC50 [4] was 39 nM.

With `CCCC[C@@H]1C[C@@](C)(c2cccc(O)c2)[C@@H](C)CN1CCc1ccccc1` the Ki [1] was 580 nM, the Ki [2] was 200 nM and the Ki [3] was 110 nM. It also gave an IC50 [4] of 120 nM.

`CCC[C@@H]1C[C@@](C)(c2cccc(O)c2)[C@@H](C)CN1C` showed a Ki [1] of over 1000 nM, a Ki [2] of 220 nM and a Ki [3] of 520 nM. The IC50 [4] was 170 nM.

With `CCC[C@@H]1C[C@@](C)(c2cccc(O)c2)[C@@H](C)CN1CC` the Ki [1] was over 1000 nM, the Ki [2] was 270 nM and the IC50 [4] was 100 nM.

Molecule `C[C@H]1CN(CCc2ccccc2)[C@H](Cc2ccccc2)C[C@@]1(C)c1cccc(O)c1` has a Ki [1] of 800 nM, a Ki [2] of 920 nM and a Ki [3] of 290 nM. The IC50 [4] was 280 nM.

`C[C@@H]1C[C@@](C)(c2cccc(O)c2)[C@@H](C)CN1CCc1ccccc1` was tested, and the Ki [1] was 65 nM, the Ki [2] was 100 nM and the Ki [3] was 15 nM. The IC50 [4] was 50 nM.

For `CC[C@@H]1C[C@@](C)(c2cccc(O)c2)[C@@H](C)CN1CCc1ccccc1`, the Ki [1] was 680 nM, the Ki [2] was 710 nM and the Ki [3] was 75 nM. The IC50 [4] was 90 nM.

Work on `CCC[C@@H]1C[C@@](C)(c2cccc(O)c2)[C@@H](C)CN1CCc1ccccc1` yielded a Ki [1] of 120 nM, a Ki [2] of 110 nM and a Ki [3] of 20 nM. It also gave an IC50 [4] of 15 nM.

For `C[C@H]1CN(CCc2ccccc2)[C@H](CCCc2ccccc2)C[C@@]1(C)c1cccc(O)c1`, the Ki [1] was 320 nM, the Ki [2] was 260 nM and the Ki [3] was 230 nM. It also gave an IC50 [4] of 360 nM.

Molecule `CCCCCCCN1C[C@H](C)[C@](C)(c2cccc(O)c2)C[C@H]1CCC` has a Ki [1] of 80 nM, a Ki [2] of 57 nM and a Ki [3] of 13 nM. It also gave an IC50 [4] of 9 nM.

`CC(=O)NCC[C@@H]1C[C@@](C)(c2cccc(O)c2)[C@@H](C)CN1CCc1ccccc1` showed a Ki [1] of over 1000 nM, a Ki [2] of 620 nM and a Ki [3] of 190 nM. It also gave an IC50 [4] of 130 nM.

With `CC(C)[C@@H]1C[C@@](C)(c2cccc(O)c2)[C@@H](C)CN1CCc1ccccc1` the Ki [1] was over 1000 nM, the Ki [2] was over 1000 nM and the Ki [3] was 270 nM. The IC50 [4] was 620 nM.
